For assay [1] the following is noted: clinical studies; cited from earlier work.
A short description of assay [2]: Noninvasive total blood hemoglobin in immoderate iron deficient subjects before and after 2 weeks of iron chelate. Type of assay: in vivo, human. Particulars: immoderate iron deficient subjects 2-7 years of age, baseline average 10.03 g/dL, 1 mL (15 mg) daily, Masimo rainbow SET SpHb. As for the experimental part: To examine this, the inventors have recruited a population (2-7 years of age) of immoderate iron deficient subjects having an average hemoglobin level of 10.03 g/dL. Total blood hemoglobin levels were measured noninvasively at baseline (time 0) and following treatment (after 2 weeks) from the index finger of subjects using Masimo rainbow SET SpHb technology. Subjects were instructed to take 1 mL of iron bis-glycinate chelate (15 mg) daily.

SMILES strings stand for the structures.

As to `NCC(=O)[O-].NCC(=O)[O-].[Fe+2]` [Ferrochel, ferrous bis glycinate], the “hemoglobin and ferritin indices compared with ferrous sulfate or ferrous ascorbate” value in assay [1] was “improved hemoglobin and ferritin indices at lower dosages than ferrous sulfate or ferrous ascorbate”. On to `NCC(=O)[O-].NCC(=O)[O-].[Fe+2]` [iron bis-glycinate chelate], for which the “average total blood hemoglobin level following treatment” value in assay [2] (after two weeks) was 11.13 g/dL. In addition, the “increase of total blood hemoglobin level, on average” value in assay [2] (two weeks, index finger) was found to be 11%.

The record behind these values is patent US20210393678A1, “PERSONALIZED FOOD PRODUCTS FOR ENSURING ADEQUATE IRON INTAKE” (MY-OR D[…]., priority 2018, published 2021).
